Here are results for three compounds from patent US5587478A, “Sapphyrin multimers” (Board of Regents, The University of Texas System, priority 1995, dated 1996).

“Also recorded” adds a separate entry of the source. Read-outs that look alike come from different tables or passages of the source.

For data set [1] the following is noted: diprotonated form; acidic pH; cited from earlier work.
Data set [2] is described as follows: U-tube model membrane transport of dicarboxylates, summary. The settings on record: neutral pH. As to the method:
(§1) To illustrate the binding of dicarboxylate anions by sapphyrin dimers, transport studies were carried out utilizing a standard U-tube model membrane system. Transport experiments were performed using a glass U-tube at 24°-26° C. Conditions: Source phase: 1 mL of a 1:1:1 ratio of 4-nitrophthalic acid, 5-nitroisophthalic acid and nitroterephthalic acid (10 mM of each) at pH 7.2 (adjusted by the addition of NaOH). Membrane (6 mL); carrier (1a or 23): 0.1 mM in dichloromethane. Receiving phase: 1 mL of H2 O, pH 7.0. The release of the dicarboxylate dianions into the receiving phase was monitored as a function of time via HPLC product analysis achieved using adenosine or uridine as the internal standards. In all cases, control experiments were performed in the absence of carrier. Error is within ±10%.

A short description of data set [3]: Binding constant titration in methanol. To be noted: for Ka: methanol, 293 K, 23 as bis HCl salt. The source says:
(§2) Quantitative assessments of dicarboxylate binding efficacy in methanol were made using standard spectroscopic techniques. In general, ^1 H NMR methods were employed, with the observed changes in the ^1 H NMR chemical shifts of the aromatic protons of the carboxyl-containing substrate (kept constant in the mM concentration range) being monitored as a function of increased receptor concentration. In some instances, well-resolved shifts could not be observed in the appropriate ^1 H NMR spectra. Here, either visible spectroscopic titration procedures were used or deuterated substrates were employed such that the binding process could be followed by ^2 H NMR.
(§3) More specifically, binding studies were effected by means of ^1 H NMR (General Electric QE-300), ^2 H NMR (Bruker AM-500) and Vis (Beckman DU 640) titrations and were carried out at 293 K. using methanol as the solvent. Methanol-d4 was used for the ^1 HNMR titrations and non-deuterated methanol was used for the ^2 H NMR analyses. For both sets of NMR titrations, the substrate concentration was held constant and the receptor concentration varied. The change in the chemical shifts of the aromatic hydrogen/deuterium atoms of the substrates were then followed and used as a way of monitoring, in a relative way, the concentration of the bound and unbound species. For the Vis titrations, the receptor concentration was held constant and the substrate concentration varied. There, the change in absorption of the Soret-like band of receptor 23 was followed. Receptor 23 was used in the form of its bis-HCl salt, 23-2HCl. This salt was prepared by washing a dichloromethane solution of 23 (in its free-base form) three times with independent portions of an aqueous pH 6 solution of HCl, followed by 1) drying over Na2 SO4, 2) evaporative removal of solvent and 3) drying in vacuo. Substrates were used as their trimethylammonium salts. They were prepared by dissolving the relevant dicarboxylic acid in methanol and then bubbling with trimethylamine gas for 10 min. […]

Data set [4] can be described thus: Binding constant titration in methanol.
Excerpt: as §2
(§4) More specifically, binding studies were effected by means of ^1 H NMR (General Electric QE-300), ^2 H NMR (Bruker AM-500) and Vis (Beckman DU 640) titrations and were carried out at 293 K. using methanol as the solvent. Methanol-d4 was used for the ^1 HNMR titrations and non-deuterated methanol was used for the ^2 H NMR analyses. For both sets of NMR titrations, the substrate concentration was held constant and the receptor concentration varied. The change in the chemical shifts of the aromatic hydrogen/deuterium atoms of the substrates were then followed and used as a way of monitoring, in a relative way, the concentration of the bound and unbound species. […]

Data set [5] in a line: Binding constant titration in methanol.
Excerpt: as §2, §4
The source holds these as a separate data set.

A short description of data set [6]: Carboxylate binding, summary statements.
Excerpt: as §2, §4

A short description of data set [7]: U-tube model membrane transport, 5-nitroisophthalate. To be noted: carrier 0.1 mM in dichloromethane; source 10 mM each of three acids, pH 7.2; receiving pH 7; 24-26 °C; error ±10%. As to the method: as §1
The nature of data set [8]: Binding constant titration in methanol.
Excerpt: as §2, §4
The source holds these as a separate data set.

A short description of data set [9]: Binding constant titration in methanol.
Excerpt: as §2, §4
This is another data set of the same source.

A short description of data set [10]: Binding constant titration in methanol. The settings on record: for Kd: methanol, 293 K, 23 as bis HCl salt, read-out: K1, K2 (converted).
Excerpt: as §2, §3

Data set [11] can be described thus: Binding constant titration in methanol.
Excerpt: as §2, §4
This is another data set of the same source.

The nature of data set [12]: Binding constant titration in methanol. To be noted: for Kd: binding constant, 1H NMR, methanol, 293 K, 23 as bis HCl salt.
Excerpt: as §2, §3

Data set [13] in a line: U-tube model membrane transport, nitroterephthalate. As to the method:
as §1

The nature of data set [14]: U-tube model membrane transport, 4-nitrophthalate. To be noted: carrier 0.1 mM in dichloromethane; source 10 mM each of three acids, pH 7.2; receiving pH 7; 24-26 °C; error ±10%. As to the method:
as §1

The next data set has as its system DNA. Kind of data set: DNA binding of unmodified sapphyrin.
A short description of data set [15]: Protonation state of sapphyrin. The data set is classed as physicochemical.
The mark [16] stands for this setting: relative to the worst bound substrate, oxalate.
Setting [17] is: Vis spectroscopy, methanol, 293 K, 23 as bis HCl salt.

Regarding `CCC1=C(C)c2cc3[nH]c(c(C)c3CC)c3[nH]c(cc4nc(cc5[nH]c(cc1n2)c(CC)c5CC)C(CC)=C4C)c(CC)c3C` [3,8,12,13,17,22-hexaethyl-2,7,18,23-tetramethylsapphyrin], in data set [1], the “carrier for through-membrane transport” value was “efficient carrier”.
With `CCC1=C(C)c2cc3[nH]c(c(C)c3CC)c3[nH]c(cc4nc(cc5[nH]c(cc1n2)c(C)c5CCC(=O)NCCCNC(=O)CCc1c(C)c2cc5nc(cc6[nH]c(c(C)c6CC)c6[nH]c(cc7nc(cc1[nH]2)C(CC)=C7C)c(CC)c6C)C(C)=C5CC)C(CC)=C4C)c(CC)c3C` [Compound 23, 1,3-bis[12-aminocarbonylethyl-(3,8,17,22-tetraethyl-2,7,13,18,23-pentamethylsapphyrin)]propane], in data set [2], the “Carrier efficacy for dicarboxylates” value was “acts as an efficient carrier for a range of dicarboxylates”. Also, the Ka was 2 500 M^-1 in data set [3] (Vis spectroscopy); 2 400 M^-1 in [3] (first value, footnote printed c); 450 M⁻¹ in data set [4] (setting [17]); 260 M⁻¹ in data set [5] (setting [17]); 4 600 M^-1 in [8] (2H NMR, methanol, 293 K, 23 as bis HCl salt); 5 300 M^-1 in data set [9] (setting [17]). Further, the Ka in [11] (setting [17]) was 9 100 M^-1. Further, the Selectivity in [3] (setting [16]) is reported as 9.4; in [4] (setting [16]), 1.7; in data set [5] (setting [16]), 1; in data set [8] (setting [16]), 17.7; in data set [9] (setting [16]), 20.4; in data set [10] (setting [16]), 5.6. The Selectivity in [11] (setting [16]) was 35.0; in data set [12] (setting [16]) it was 1.2. The “Affinity and selectivity for carboxylates (in words)” value in [6] is “little affinity for monocarboxylate-derived substrates; also recorded: very good affinities for certain dicarboxylates; also recorded: preference for linear over bent substrates and aromatic over aliphatic substrates”. In addition, the “Initial rate of transport kT, meta” value in data set [7] is listed as 2.926 10^-10 mol/cm^2 · h. The Kd is 725 µM in [10] (1H NMR), 654 µM in data set [10] (2H NMR), 3.23 mM in [12] (read-out: K1 (converted)) and 3.57 mM in data set [12] (read-out: K2 (converted)). Also, in [13] (carrier 0.1 mM in dichloromethane, source 10 mM each of three acids, pH 7.2, receiving pH 7, 24-26 °C, error ±10%), the “Initial rate of transport kT, para” value is listed as 6.803 10^-10 mol/cm^2 · h. Moreover, the “Transport rate of nitroterephthalate relative to 4-nitrophthalate” value in data set [13] (direct competition experiments) is recorded as “three times faster”. For the same compound, the “Initial rate of transport kT, ortho” value in data set [14] was 2.190 10^-10 mol/cm^2 · h.
Consider `CCc1c(CC)c2cc3nc(cc4[nH]c(c(C)c4CC)c4[nH]c(cc5nc(cc1[nH]2)C(CCC(=O)N(CCO)CCO)=C5C)c(CC)c4C)C(C)=C3CCC(=O)N(CCO)CCO` [sapphyrin], for which the “mode of DNA binding” value in the data set with DNA is “not intercalation or groove binding”. Also, on DNA (unmodified sapphyrin, read-out: binding constant for DNA), the Kd was roughly 1000 nM. Moreover, in data set [15], the “pH range in which sapphyrin remains monoprotonated” value is on record as 3.5-10 pH.
